# Key:
# U-2 OS cells = experiment: AZT treatment of ALT cells, flow cytometry for telomere length (PNA probe) and cell cycle (PI); format: cell-based, human
# Method: (§1) Telomere length in AZT treated and untreated cell lines was measured by flow cytometry with a telomere-specific peptide nucleic acid (PNA) probe^22,23. To determine cell cycle distribution, cells were stained with propidium iodide (PI)^22. […] AZT at the chosen concentration had no effect on telomere length or cell cycle distribution in the HeLa cells (not shown).
# Rate of DNA synthesis was determined by incorporation of 5-bromodeoxyuridine (BdU)^24.
# (§2) Cell lines: All cell lines used in this study were obtained from American Type Culture Collection (Rockville, Md.). The cells origins included osteosarcoma (Saos-2 and U-2 OS), liver ([…]) and uterine cervix (HeLa). Cells were cultured following ATCC recommendation. For treatment of the cells with AZT, the media was supplemented with 0.2 μM of 3′-azido-2′,3′-dideoxythymidine (Sigma)^28.
# (§3) Telomere length measurement by flow cytometry: Cell were stained with telomere specific FITC conjugated (C3TA2)3 PNA (Applied Biosystems) probe and contrastained with 0.06 μg/ml PI as described^21.
# Saos-2 cells = experiment: as above; format: cell-based, human; conditions: Saos-2, 0.2 μM AZT, 14 days
# Method: as §1, §2, §3
# [1] = test system: WM1175 (malignant melanoma) or HUT292DM (lung cancer) cells; experiment: Telomerase-positive xenograft tumors in immunodeficient mice treated with AZT; format: in vivo; conditions: AZT at the dose tested (total daily dose 10 mg/kg)
# Method: After induction of tumors, mice in the experimental groups may be treated with AZT. Mice may be injected i.p. twice a day with solution of AZT in PBS with a total daily dose of 10 mg/kg. Mice in control group may be injected with PBS. Alternatively, AZT at the same daily dose may be given in drinking water. […] As a separate set of controls, telomerase-positive tumors in nude mouse may be induced by injecting the immunodeficient mice with WM1175 (malignant melanoma) or HUT292DM (lung cancer) cells instead of the transformed IIICF/c fibroblast cells.
smiles,measurement,setting,value
"Cc1cn([C@H]2C[C@H](N=[N+]=[N-])[C@@H](CO)O2)c(=O)[nH]c1=O [AZT, 3′-azido-2′,3′-dideoxythymidine]",DNA content (PI staining),"U-2 OS cells; AZT treated cells at later stages of treatment, compared to untreated cells",higher DNA content
same,"time of AZT treatment after which changes in cell cycle distribution, DNA synthesis and telomere length could be detected","U-2 OS cells; U-2 OS, 0.2 μM AZT",10 days
same,apoptosis,"U-2 OS cells; U-2 OS, 0.2 μM AZT, 14 days",massive apoptosis
same,telomere length,"U-2 OS cells; U-2 OS, 0.2 μM AZT, 14 days",telomere shortening
same,cell cycle distribution,"U-2 OS cells; U-2 OS, 0.2 μM AZT, 14 days, PI staining",G2 arrest
same,apoptosis,Saos-2 cells,massive apoptosis
same,telomere length,Saos-2 cells,telomere shortening
same,cell cycle distribution,Saos-2 cells; PI staining,G2 arrest
same,inhibition of telomerase-positive tumors,[1],cannot be inhibited

# Reference: US8778906B2, “Modulation of line-1 reverse transcriptase” (ALT Solutions, Inc., priority 2003, dated 2014)
